Assay results: patent US10800791B2, “Triazole ACC inhibitors and uses thereof” (Gilead Apollo, LLC, priority 2015, dated 2020)
In brackets after ≈: the same amount, converted by molar mass.

Tests used:
human (hACC2) = human (hACC2) (Homo sapiens, UniProt O00763); test: In vitro ACC inhibition assay (ADP-Glo), hACC2; assay type: biochemical; conditions: Table 2b, additional results, 5 nM ACC2, 20 μM ATP, 20 μM acetyl-CoA
Procedure: The detailed procedure is as follows. […] 10 μL ADP glo reagent was added. […] 20 μL kinase detection reagent was added.

C. albicans = test: Antifungal Activity Assay (broth microtiter MIC), C. albicans; assay type: cell-based, Candida albicans; conditions: Candida albicans, ATCC90028, 48 h, Table 3b (additional results); ATCC 90028; 3 replicates; MIC recorded at 48 h; read-out: MIC, C. albicans ATCC 90028
Outline: (§1)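 MICs were scored by eye at 48 h relative to the growth control. Plates followed CLSI M27-A3, with Candida suspensions in RPMI 1640+MOPS giving a final 2.5×10^3 CFU/mL; the colonies came from Sabouraud agar grown overnight at 35 °C.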

C. krusei = test: Antifungal Activity Assay (broth microtiter MIC), C. krusei; assay type: cell-based, Candida krusei; conditions: Pichia kudriavzevii, ATCC6258, 48 h, Table 3b (additional results); ATCC 6258; 3 replicates; MIC recorded at 48 h; read-out: MIC, C. krusei ATCC 6258
Outline: as §1

C. parapsilosis = test: Antifungal Activity Assay (broth microtiter MIC), C. parapsilosis; assay type: cell-based, Candida parapsilosis; conditions: Lodderomyces parapsilosis, ATCC22019, 48 h, Table 3b (additional results); ATCC 22019; 3 replicates; MIC recorded at 48 h; read-out: MIC, C. parapsilosis ATCC 22019
Outline: as §1

Botrtyis cinerea (Bc) = test: Growth inhibition assay of fungal pathogens, Bc; assay type: cell-based; conditions: 48 h, Botrtyis cinerea; growth inhibition at 48 hours vs 2% DMSO control; read-out: Concentration at 90% Inhibition Bc
Outline: (§2)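 Spores from sub-cultured plates were diluted in 17% V8 liquid medium and exposed to compound from DMSO stocks at final concentrations of 50, 10 and 2 ppm or 2, 0.4 and 0.08 ppm. OD600 and visual ratings at 48 h were compared with the 2% DMSO control to give percent growth inhibition.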

[1] = test system: Collectotrichum graminicola (Cg); test: Growth inhibition assay of fungal pathogens, Cg; assay type: cell-based; conditions: 48 h, Collectotrichum graminicola; growth inhibition at 48 hours vs 2% DMSO control; read-out: Concentration at 90% Inhibition Cg
Outline: as §2

Diplodia maydis (Dm) = test: Growth inhibition assay of fungal pathogens, Dm; assay type: cell-based; conditions: Stenocarpella maydis, 48 h, Diplodia maydis; growth inhibition at 48 hours vs 2% DMSO control; read-out: Concentration at 90% Inhibition Dm
Outline: as §2

[2] = test system: Fusarium moniliforme (Fm); test: Growth inhibition assay of fungal pathogens, Fm; assay type: cell-based; conditions: Fusarium verticillioides, 48 h, Fusarium moniliforme; growth inhibition at 48 hours vs 2% DMSO control; read-out: Concentration at 90% Inhibition Fm
Outline: as §2

[3] = test system: Fusarium virguliforme (Fv); test: Growth inhibition assay of fungal pathogens, Fv; assay type: cell-based; conditions: 48 h, growth inhibition at 48 hours vs 2% DMSO control, read-out: Concentration at 90% Inhibition Fv
Outline: as §2

[4] = test system: Phytophthora capsici (Pc); test: Growth inhibition assay of fungal pathogens, Pc; assay type: cell-based; conditions: 48 h, growth inhibition at 48 hours vs 2% DMSO control, read-out: Concentration at 90% Inhibition Pc
Outline: as §2

Rhizoctonia solani (Rs) = test: Growth inhibition assay of fungal pathogens, Rs; assay type: cell-based; conditions: 48 h, mycelial plugs, growth inhibition at 48 hours vs 2% DMSO control, read-out: Concentration at 90% Inhibition Rs
Septoria tritici (St) = test: Growth inhibition assay of fungal pathogens, St; assay type: cell-based; conditions: Zymoseptoria tritici, 48 h, Septoria tritici; growth inhibition at 48 hours vs 2% DMSO control; read-out: Concentration at 90% Inhibition St
Outline: as §2

fungal (fACC2) = fungal (fACC2) (UniProt Q00955); conditions: read-out: fACC2 (in vitro ACC2 Inhibition Assay, IC50); Table 2b, additional results; ADP-Glo, 5 nM ACC2, 20 μM ATP, 20 μM acetyl-CoA
fungal (fACC2), sequence (Q00955 whole entry): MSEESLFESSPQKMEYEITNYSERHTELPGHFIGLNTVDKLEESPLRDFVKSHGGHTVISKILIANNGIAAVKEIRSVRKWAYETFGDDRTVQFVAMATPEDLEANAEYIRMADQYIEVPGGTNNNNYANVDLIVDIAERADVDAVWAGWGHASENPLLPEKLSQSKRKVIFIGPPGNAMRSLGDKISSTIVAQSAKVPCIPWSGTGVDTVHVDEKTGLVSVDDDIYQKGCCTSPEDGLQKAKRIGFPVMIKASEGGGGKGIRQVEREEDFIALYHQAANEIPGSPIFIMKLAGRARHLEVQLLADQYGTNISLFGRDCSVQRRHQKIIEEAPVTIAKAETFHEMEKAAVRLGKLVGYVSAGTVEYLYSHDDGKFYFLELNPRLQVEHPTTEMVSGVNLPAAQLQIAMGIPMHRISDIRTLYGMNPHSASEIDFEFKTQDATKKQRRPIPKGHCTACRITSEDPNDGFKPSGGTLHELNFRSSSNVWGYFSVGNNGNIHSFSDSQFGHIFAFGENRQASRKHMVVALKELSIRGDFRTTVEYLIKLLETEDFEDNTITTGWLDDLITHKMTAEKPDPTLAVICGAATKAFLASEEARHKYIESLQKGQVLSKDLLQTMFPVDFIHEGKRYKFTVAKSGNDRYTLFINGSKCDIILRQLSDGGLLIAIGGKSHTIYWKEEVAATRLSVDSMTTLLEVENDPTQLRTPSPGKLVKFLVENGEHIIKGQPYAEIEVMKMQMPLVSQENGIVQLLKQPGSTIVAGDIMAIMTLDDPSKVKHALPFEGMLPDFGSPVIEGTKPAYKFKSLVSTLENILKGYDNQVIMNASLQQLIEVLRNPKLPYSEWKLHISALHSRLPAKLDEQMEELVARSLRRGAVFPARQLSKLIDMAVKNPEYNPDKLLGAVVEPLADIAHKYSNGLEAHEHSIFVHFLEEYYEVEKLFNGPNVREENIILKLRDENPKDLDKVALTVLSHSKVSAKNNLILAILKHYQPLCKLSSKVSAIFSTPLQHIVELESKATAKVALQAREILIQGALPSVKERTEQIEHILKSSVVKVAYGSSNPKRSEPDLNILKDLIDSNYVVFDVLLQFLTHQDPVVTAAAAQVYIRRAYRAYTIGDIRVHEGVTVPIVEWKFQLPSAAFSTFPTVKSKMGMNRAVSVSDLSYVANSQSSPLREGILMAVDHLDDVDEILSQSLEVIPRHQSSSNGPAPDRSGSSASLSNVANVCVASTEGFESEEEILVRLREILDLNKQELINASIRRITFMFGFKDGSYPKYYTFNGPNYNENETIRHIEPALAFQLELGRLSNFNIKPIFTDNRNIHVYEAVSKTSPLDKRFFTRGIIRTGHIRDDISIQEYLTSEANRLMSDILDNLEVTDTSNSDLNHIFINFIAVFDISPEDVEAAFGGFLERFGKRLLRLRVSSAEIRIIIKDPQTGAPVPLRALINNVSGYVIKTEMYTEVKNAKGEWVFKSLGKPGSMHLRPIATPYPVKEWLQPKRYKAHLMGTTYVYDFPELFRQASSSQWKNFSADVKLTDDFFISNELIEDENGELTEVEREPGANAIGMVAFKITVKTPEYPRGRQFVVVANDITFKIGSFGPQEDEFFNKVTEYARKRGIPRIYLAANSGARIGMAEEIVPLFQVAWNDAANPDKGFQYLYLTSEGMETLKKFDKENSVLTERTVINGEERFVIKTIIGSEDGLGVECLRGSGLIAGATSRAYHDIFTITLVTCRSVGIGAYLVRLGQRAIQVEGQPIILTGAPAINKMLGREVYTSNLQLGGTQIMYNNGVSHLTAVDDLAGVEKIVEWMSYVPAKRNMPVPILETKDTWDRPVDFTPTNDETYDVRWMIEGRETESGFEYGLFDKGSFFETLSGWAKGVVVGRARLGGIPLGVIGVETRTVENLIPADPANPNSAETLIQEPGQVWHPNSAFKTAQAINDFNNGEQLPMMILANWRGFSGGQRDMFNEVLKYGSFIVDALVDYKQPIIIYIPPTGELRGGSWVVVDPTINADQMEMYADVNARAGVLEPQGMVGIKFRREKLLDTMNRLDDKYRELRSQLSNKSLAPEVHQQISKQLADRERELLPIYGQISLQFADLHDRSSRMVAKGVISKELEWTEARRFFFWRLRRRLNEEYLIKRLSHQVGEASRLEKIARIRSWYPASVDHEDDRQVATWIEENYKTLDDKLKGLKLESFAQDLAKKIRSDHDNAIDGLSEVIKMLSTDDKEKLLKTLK

human (hACC2), sequence (O00763 whole entry): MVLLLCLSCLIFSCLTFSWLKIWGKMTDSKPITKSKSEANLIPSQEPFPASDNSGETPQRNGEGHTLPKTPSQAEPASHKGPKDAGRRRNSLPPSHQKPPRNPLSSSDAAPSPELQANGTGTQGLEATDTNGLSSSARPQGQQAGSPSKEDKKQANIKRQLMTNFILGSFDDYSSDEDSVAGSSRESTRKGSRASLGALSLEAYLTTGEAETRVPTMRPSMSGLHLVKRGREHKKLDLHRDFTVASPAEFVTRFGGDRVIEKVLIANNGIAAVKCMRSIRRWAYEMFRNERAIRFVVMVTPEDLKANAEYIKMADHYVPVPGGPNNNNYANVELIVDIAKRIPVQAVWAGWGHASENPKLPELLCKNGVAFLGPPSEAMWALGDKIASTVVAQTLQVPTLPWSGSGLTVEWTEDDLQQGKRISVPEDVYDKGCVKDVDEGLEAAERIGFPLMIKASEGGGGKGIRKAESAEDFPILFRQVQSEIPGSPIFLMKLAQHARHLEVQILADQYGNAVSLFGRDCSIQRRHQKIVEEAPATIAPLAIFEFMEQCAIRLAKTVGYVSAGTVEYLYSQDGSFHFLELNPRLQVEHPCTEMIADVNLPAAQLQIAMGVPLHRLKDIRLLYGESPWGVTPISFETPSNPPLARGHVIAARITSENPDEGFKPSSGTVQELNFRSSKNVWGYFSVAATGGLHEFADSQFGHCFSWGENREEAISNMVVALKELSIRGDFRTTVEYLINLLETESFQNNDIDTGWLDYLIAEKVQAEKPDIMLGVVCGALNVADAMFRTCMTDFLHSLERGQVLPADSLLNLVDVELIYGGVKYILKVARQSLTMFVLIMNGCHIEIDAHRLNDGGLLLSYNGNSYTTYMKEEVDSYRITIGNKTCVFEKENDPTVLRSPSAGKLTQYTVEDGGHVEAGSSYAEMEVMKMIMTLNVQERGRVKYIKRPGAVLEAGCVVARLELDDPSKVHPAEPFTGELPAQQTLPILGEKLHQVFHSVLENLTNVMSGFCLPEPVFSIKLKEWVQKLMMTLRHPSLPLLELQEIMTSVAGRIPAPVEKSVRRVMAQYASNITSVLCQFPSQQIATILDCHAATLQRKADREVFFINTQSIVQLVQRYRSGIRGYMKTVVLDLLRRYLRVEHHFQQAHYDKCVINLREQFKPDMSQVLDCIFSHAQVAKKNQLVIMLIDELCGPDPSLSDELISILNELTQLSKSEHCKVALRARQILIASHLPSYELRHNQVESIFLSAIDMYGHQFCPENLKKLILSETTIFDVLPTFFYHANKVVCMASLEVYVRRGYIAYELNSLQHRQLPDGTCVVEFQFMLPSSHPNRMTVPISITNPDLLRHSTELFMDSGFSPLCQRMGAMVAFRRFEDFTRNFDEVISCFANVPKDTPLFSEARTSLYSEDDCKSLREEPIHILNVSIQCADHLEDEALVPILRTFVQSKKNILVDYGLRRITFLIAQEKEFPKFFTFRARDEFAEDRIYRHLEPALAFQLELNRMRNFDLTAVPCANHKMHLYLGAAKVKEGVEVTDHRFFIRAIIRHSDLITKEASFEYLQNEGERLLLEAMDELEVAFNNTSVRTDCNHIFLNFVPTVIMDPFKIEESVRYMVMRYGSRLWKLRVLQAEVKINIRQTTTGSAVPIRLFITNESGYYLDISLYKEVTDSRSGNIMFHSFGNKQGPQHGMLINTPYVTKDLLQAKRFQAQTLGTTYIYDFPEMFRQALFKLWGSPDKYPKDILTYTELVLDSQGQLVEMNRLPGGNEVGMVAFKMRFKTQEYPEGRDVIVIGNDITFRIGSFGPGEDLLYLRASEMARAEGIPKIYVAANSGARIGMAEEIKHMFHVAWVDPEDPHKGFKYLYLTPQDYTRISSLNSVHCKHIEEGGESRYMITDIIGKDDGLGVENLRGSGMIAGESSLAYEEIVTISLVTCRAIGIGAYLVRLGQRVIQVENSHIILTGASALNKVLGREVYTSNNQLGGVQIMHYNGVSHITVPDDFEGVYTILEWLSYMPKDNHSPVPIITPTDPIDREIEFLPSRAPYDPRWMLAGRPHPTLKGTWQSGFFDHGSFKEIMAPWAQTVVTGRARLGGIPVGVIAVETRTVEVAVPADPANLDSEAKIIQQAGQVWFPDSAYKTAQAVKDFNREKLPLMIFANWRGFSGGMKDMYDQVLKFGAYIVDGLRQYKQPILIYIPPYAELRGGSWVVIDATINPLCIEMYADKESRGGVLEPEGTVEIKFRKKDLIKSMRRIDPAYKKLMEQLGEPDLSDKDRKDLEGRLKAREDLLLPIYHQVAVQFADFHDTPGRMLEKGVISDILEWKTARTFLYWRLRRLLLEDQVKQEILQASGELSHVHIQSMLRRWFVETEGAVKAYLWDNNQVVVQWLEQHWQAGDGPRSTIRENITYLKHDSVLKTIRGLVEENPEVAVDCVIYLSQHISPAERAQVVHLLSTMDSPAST

Compound	IC50 (human (hACC2))	MIC (C. albicans)	MIC (C. krusei)	MIC (C. parapsilosis)	IC90 (Botrtyis cinerea (Bc))	IC90 [1]	IC90 (Diplodia maydis (Dm))	IC90 [2]	IC90 [3]	IC90 [4]	IC90 (Rhizoctonia solani (Rs))	IC90 (Septoria tritici (St))	IC50 (fungal (fACC2))
COc1ccc(F)cc1[C@@H](O)Cn1c(=O)n([C@H](C)C(=O)N2CCCC2)c(=O)c2c(C)c(-n3nccn3)sc21 [Compound I-195]	5 to 10 nM	1.01 to 2 µg/mL (≈ 1.86 to 3.69 µM)	1.01 to 2 µg/mL (≈ 1.86 to 3.69 µM)	1.01 to 2 µg/mL (≈ 1.86 to 3.69 µM)	2 µg/mL (≈ 3.69 µM)	2 µg/mL (≈ 3.69 µM)	10 µg/mL (≈ 18.4 µM)	0.4 µg/mL (≈ 0.737 µM)	0.4 µg/mL (≈ 0.737 µM)	> 50 µg/mL	0.4 µg/mL (≈ 0.737 µM)	> 50 µg/mL	0.3 to 1 nM
COc1ccccc1[C@@H](O)Cn1c(=O)n(C(C)(C)C(N)=O)c(=O)c2c(C)c(-n3nccn3)sc21 [Compound I-196]	10 to 40 nM	> 4.01 µg/mL	2.01 to 4 µg/mL (≈ 4.15 to 8.26 µM)	> 4.01 µg/mL	> 50 µg/mL	> 50 µg/mL	> 50 µg/mL	> 50 µg/mL	> 50 µg/mL	> 50 µg/mL	2 µg/mL (≈ 4.13 µM)	> 50 µg/mL	1 to 5 nM
COc1ccc(F)cc1[C@@H](O)Cn1c(=O)n([C@H](C)C(=O)N(C)C(C)C)c(=O)c2c(C)c(-n3nccn3)sc21 [Compound I-197]	5 to 10 nM	2.01 to 4 µg/mL (≈ 3.69 to 7.34 µM)	2.01 to 4 µg/mL (≈ 3.69 to 7.34 µM)	2.01 to 4 µg/mL (≈ 3.69 to 7.34 µM)	0.4 µg/mL (≈ 0.734 µM)	2 µg/mL (≈ 3.67 µM)	2 µg/mL (≈ 3.67 µM)	0.08 µg/mL (≈ 0.147 µM)	0.4 µg/mL (≈ 0.734 µM)	> 50 µg/mL	0.4 µg/mL (≈ 0.734 µM)	> 50 µg/mL	0.3 to 1 nM
COc1ccc(F)cc1[C@@H](O)Cn1c(=O)n([C@@H](C)C(=O)N(C)C(C)C)c(=O)c2c(C)c(-n3nccn3)sc21 [Compound I-198]	1 to 5 nM	2.01 to 4 µg/mL (≈ 3.69 to 7.34 µM)	2.01 to 4 µg/mL (≈ 3.69 to 7.34 µM)	2.01 to 4 µg/mL (≈ 3.69 to 7.34 µM)	0.4 µg/mL (≈ 0.734 µM)	0.4 µg/mL (≈ 0.734 µM)	0.4 µg/mL (≈ 0.734 µM)	0.08 µg/mL (≈ 0.147 µM)	0.4 µg/mL (≈ 0.734 µM)	10 µg/mL (≈ 18.4 µM)	0.08 µg/mL (≈ 0.147 µM)	> 50 µg/mL	1 to 5 nM
COc1ccccc1[C@H](Cn1c(=O)n([C@H](C)C(=O)N(C)C(C)C)c(=O)c2c(C)c(-n3nccn3)sc21)OCCC#N [Compound I-205]	5 to 10 nM	2.01 to 4 µg/mL (≈ 3.47 to 6.9 µM)	2.01 to 4 µg/mL (≈ 3.47 to 6.9 µM)	1.01 to 2 µg/mL (≈ 1.74 to 3.45 µM)	2 µg/mL (≈ 3.45 µM)	10 µg/mL (≈ 17.3 µM)	10 µg/mL (≈ 17.3 µM)	2 µg/mL (≈ 3.45 µM)	10 µg/mL (≈ 17.3 µM)	> 50 µg/mL	10 µg/mL (≈ 17.3 µM)	> 50 µg/mL	0.3 to 1 nM
COc1ccccc1[C@H](Cn1c(=O)n([C@@H](C)C(=O)N(C)C(C)C)c(=O)c2c(C)c(-n3nccn3)sc21)OCCC#N [Compound I-206]	1 to 5 nM	2.01 to 4 µg/mL (≈ 3.47 to 6.9 µM)	2.01 to 4 µg/mL (≈ 3.47 to 6.9 µM)	1.01 to 2 µg/mL (≈ 1.74 to 3.45 µM)	2 µg/mL (≈ 3.45 µM)	2 µg/mL (≈ 3.45 µM)	2 µg/mL (≈ 3.45 µM)	0.08 µg/mL (≈ 0.138 µM)	0.08 µg/mL (≈ 0.138 µM)	10 µg/mL (≈ 17.3 µM)	0.08 µg/mL (≈ 0.138 µM)	10 µg/mL (≈ 17.3 µM)	0.3 to 1 nM
COc1ccc(F)cc1[C@H](Cn1c(=O)n([C@H](C)C(=O)NC(C)C)c(=O)c2c(C)c(-n3nccn3)sc21)OCC(C)(C)C#N [Compound I-210]	1 to 5 nM	1.01 to 2 µg/mL (≈ 1.65 to 3.27 µM)	2.01 to 4 µg/mL (≈ 3.29 to 6.54 µM)	1.01 to 2 µg/mL (≈ 1.65 to 3.27 µM)	0.4 µg/mL (≈ 0.654 µM)	0.4 µg/mL (≈ 0.654 µM)	0.4 µg/mL (≈ 0.654 µM)	0.08 µg/mL (≈ 0.131 µM)	0.4 µg/mL (≈ 0.654 µM)	> 50 µg/mL	0.08 µg/mL (≈ 0.131 µM)	2 µg/mL (≈ 3.27 µM)	0.3 to 1 nM
COc1ccc(F)cc1[C@H](Cn1c(=O)n([C@@H](C)C(=O)NC(C)C)c(=O)c2c(C)c(-n3nccn3)sc21)OCC(C)(C)C#N [Compound I-211]	10 to 40 nM	1.01 to 2 µg/mL (≈ 1.65 to 3.27 µM)	2.01 to 4 µg/mL (≈ 3.29 to 6.54 µM)	1.01 to 2 µg/mL (≈ 1.65 to 3.27 µM)	2 µg/mL (≈ 3.27 µM)	> 50 µg/mL	10 µg/mL (≈ 16.3 µM)	2 µg/mL (≈ 3.27 µM)	> 50 µg/mL	> 50 µg/mL	> 50 µg/mL	> 50 µg/mL	1 to 5 nM
COc1ccc(F)cc1[C@H](Cn1c(=O)n([C@H](C)C(N)=O)c(=O)c2c(C)c(-n3nccn3)sc21)OCC(C)(C)C#N [Compound I-212]	1 to 5 nM	0.25 to 1 µg/mL (≈ 0.439 to 1.76 µM)	> 4.01 µg/mL	2.01 to 4 µg/mL (≈ 3.53 to 7.02 µM)	2 µg/mL (≈ 3.51 µM)	10 µg/mL (≈ 17.6 µM)	10 µg/mL (≈ 17.6 µM)	2 µg/mL (≈ 3.51 µM)	10 µg/mL (≈ 17.6 µM)	> 50 µg/mL	2 µg/mL (≈ 3.51 µM)	> 50 µg/mL	1 to 5 nM
COc1ccc(F)cc1[C@H](Cn1c(=O)n([C@@H](C)C(N)=O)c(=O)c2c(C)c(-n3nccn3)sc21)OCC(C)(C)C#N [Compound I-213]	5 to 10 nM	0.25 to 1 µg/mL (≈ 0.439 to 1.76 µM)	> 4.01 µg/mL	2.01 to 4 µg/mL (≈ 3.53 to 7.02 µM)	> 50 µg/mL	> 50 µg/mL	> 50 µg/mL	10 µg/mL (≈ 17.6 µM)	> 50 µg/mL	> 50 µg/mL	> 50 µg/mL	> 50 µg/mL	1 to 5 nM
